Data from patent US20250269018A1, “COMBINED CANCER THERAPY WITH AN EPITHELIAL CELL ADHESION MOLECULE (EPCAM) INHIBITOR AND A HEPATOCYTE GROWTH FACTOR RECEPTOR (HGFR) INHIBITOR” (ACADEMIA SINICA, priority 2021, published 2025).
Entries after “also recorded” stand apart in the source; their conditions may differ.

B1: EpAb2-6: anti-EpCAM neutralizing monoclonal antibody targeting EpEX; VH SEQ ID NO: 15, VL SEQ ID NO: 16 (antibody, listed as Homo sapiens, V domains shown)
VH: VKLQESGPELKKPGETVKISCKASGYTFTDYSMHWVKQAPGKGLKWMGWINTETGEPTYADDFKGRFAFSLETSASTAYLQINNLKNEDTATYFCARTAVYWGQGTTVTVSS
VL: DIQMTQSPSSLSASLGERVSLTCRASQEISVSLSWLQQEPDGTIKRLIYATSTLDSGVPKRFSGSRSGSDYSLTISSLESEDFVDYYCLQYASYPWTFGGGTKLEIKRADAAPTVS

Tested on: HCT116 cells
Test: Transwell migration/invasion and wound healing assay, HCT116
Type: cell-based, human
Settings: for EpEX-induced migration and invasion: HCT116 cells, discussion statement; for EpEX-induced invasion: 50 nM EpEX, LY 25 μM, U0 20 μM, PF 10 μM, Transwell with matrigel, FIG. 4K
Procedure: FIGS. 3A to 3H. EpEX induces the activation of ERK and FAK-AKT signaling pathway. Wild type (WT) or EpCAM knockout (KO) HCT116 cells after EpEX-His treatment. (FIG. 3A) The levels of phosphorylated HGFR, AKT, FAK, GSK3β, ERK, ADAM17, and presenilin 2 were assayed by Western blotting. (FIG. 3B) Colony formation was examined by crystal violet staining. (FIG. 3C) HCT116 cells were treated with TAPI (ADAM17 inhibitor) or DAPT (γ-secretase inhibitor) for 24 hours, and the phosphorylation of HGFR, AKT, and ERK was analyzed by Western blotting, and EpEX protein level in culture medium was examined by immunoprecipitation and Western blotting. (FIG. 3D) HCT116 and HT29 cells were starved for 16 h, then treated with EpEX-His (50 nM) and HGF (0.5 nM) for 15 min. The levels of phosphorylated HGFR, AKT, and ERK were examined by Western blotting. (FIG. 3E) HCT116 cells were starved for 16 h, then treated with 50 nM EpEX-His for 15 min. HGFR inhibitor SU11274 (SU, 10 μM), AKT inhibitor LY294002 (LY, 25 μM), ERK inhibitor U0126 (U0, 20 μM), or FAK inhibitor PF-562271 (PF, 10 μM) were applied 1 h before EpEX treatment. Phosphorylation of AKT, ERK, and FAK was examined by Western blotting. (FIG. 3F) HCT116 cells were starved for 16 h, then treated with 50 nM EpEX, and SU (10 μM), LY (25 μM), U0 (20 μM) or PF (10 μM). Colony formation was examined by crystal violet staining after treatment for 7 days. The relative colony densities are shown. Migration ability was examined by the (FIG. 3G) wound healing assay at the indicated times. (FIG. 3H) The numbers of migration cell was assessed by a Transwell after treatment for 24 h.
FIGS. 4A to 4L. EpEX induces EMT and invasion by stabilizing β-catenin and Snail through decreasing GSK3β activity. (FIG. 4A) The protein expression of EMT markers and regulators was detected by Western blotting in Wild-type (WT) or EpCAM knockout (KO) HCT116 cells after EpEX treatment. (FIG. 4B) Cell invasion was examined by Transwell chamber assay with matrigel. (FIG. 4C) WT or KO HCT116 and HT29 cells were starved for 16 h, then treated with 0.5 nM of HGF with 2% FBS for 24 h. EMT-related protein expression (E-cadherin, vimentin, and Snail) was examined by Western blotting. (FIG. 4D) WT or KO HCT116 and HT29 cells were treated with HGF (0.5 nM) for 24 h. Invasion by HCT116 and HT29 cells was examined by Transwell chamber assay with matrigel. (FIG. 4E) HCT116 and HT29 cells were starved for 16 h, then treated with 0.5 nM of HGF with 2% FBS for 24 h. EMT-related protein expression (E-cadherin, Vimentin, and Snail) was examined by Western blotting. (FIG. 4F) HCT116 and HT29 cells were starved for 16 h, then treated with 0.5 nM of HGF with 2% FBS for 24 h. Cell invasion was assessed by a Transwell assay with matrigel. (FIG. 4G) HCT116 cells after shLuc and shHGFR treatment were treated with 50 nM of EpEX-His. HCT116 cells after shLuc and shHGFR treatment were treated with 50 nM of EpEX-His with 2% FBS for 24 h. EMT-related protein expression (E-cadherin, Vimentin, and Snail) was examined by Western blotting. (FIG. 4H) Cell invasion was examined by Transwell chamber assay with matrigel. (FIG. 4I) Starved HCT116 cells were treated SU (10 μM) for 1 h, followed by treatment with EpEX-His (50 nM) for 24 h. Phosphorylated GSK3β, active-β-catenin, and Snail were detected by Western blotting. (FIG. 4J) HCT116 cells were starved for 16 h, then treated with 50 nM EpEX-His for 24 min. AKT inhibitor LY294002 (25 μM), ERK inhibitor U0126 (20 μM), or PF-562271 (10 μM) were applied 1 h before EpEX treatment. Protein expression of phosphorylated GSK3β and Snail was examined by Western blotting. (FIG. 4K) HCT116 cells were starved for 16 h, then treated with 50 nM EpEX, and SU (10 μM), LY (25 μM), UO (20 μM) or PF (10 μM). Cell invasion was examined by Transwell chamber assay with matrigel. (FIG. 4L) Protein expression was analyzed by Western blotting in EpEX-His (50 nM) treated HCT116 cells after treatment with or without 2 μM GSK3β inhibitor (BIO) for 24 h. […]

Molecule | EpEX-induced migration and invasion | EpEX-induced invasion (HCT116) | invasion and migration activities of HCT116 cells (EpAb2-6 10 μg/ml, wound healing, Transwell with matrigel 24 h) | effects of EpAb2-6 on invasion and migration when treated with HGF after EpAb2-6 (HCT116, EpAb2-6 10 μg/ml and HGF 0.5 nM, FIGS. 6C and 6D)
Cc1[nH]c(C=C2C(=O)Nc3ccc(S(=O)(=O)N(C)c4cccc(Cl)c4)cc32)c(C)c1C(=O)N1CCN(C)CC1 (stereo in doubt) [SU11274, (3Z)-N-(3-Chlorophenyl)-3-({3,5-dimethyl-4-[(4-methylpiperazin-1-yl)carbonyl]-1H-pyrrol-2-yl}methylene)-N-methyl-2-oxo-2,3-dihydro-1H-indole-5-sulfonamide] | attenuate EpEX-induced migration and invasion |  |  | 
CN(c1ncccc1CNc1nc(Nc2ccc3c(c2)CC(=O)N3)ncc1C(F)(F)F)S(C)(=O)=O [PF-562271] | attenuate EpEX-induced migration and invasion | suppressed |  | 
N#CC(=C(/N)Sc1ccccc1N)/C(C#N)=C(\N)Sc1ccccc1N [U0126] | attenuate EpEX-induced migration and invasion | suppressed |  | 
B1 |  |  | significantly reduced; also recorded: attenuate the invasion and migration capacity of HCT116 cells | partially blunted
